Series [1] can be described thus: Plasma pharmacokinetics in sheep (release of R-100 from R-107), LCMS. It is filed as in vivo. To be noted: IV R-100 20 mg/kg bolus. Here is the method: In the following two experiments, the pharmacokinetic of releasing R-100 from R-107, via R-105 that is the reduced form of R-100, was studied in vivo according to the protocol described herein.
100 μl aliquots plasma obtained from R-107-treated sheep or pig were thawed and 200 μl ice-cold ethanol was added to each 100 μl sample to precipitate protein. Samples were then vortexed, placed on ice for 10 minutes, and then spun down at room temperature for 15 minutes. A first 100 μl supernatant from each spun sample was withdrawn and placed in a labeled HPLC micro vial to which 300 μl MPA (LC mobile phase A) was added, and the vial contents were then mixed and submitted for LCMS analysis (kept at 4° C.). The concentration of R-107 was measured in this sample as was the concentration of R105. A second 100 μl supernatant from each spun sample was added to a labelled HPLC micro vial to which 300 μl MPA and 2 μl of Reducing solution (ascorbic acid, 1.0 mg/ml in water) were added. These vials were vortexed; incubated at 50° C. for 1 hour with gentle shaking; and were then cooled to 4° C. and submitted for LCMS analysis. This sample was analyzed for R105, i.e., reduced form of R-100, and the amount measured thus represents the sum of R-100 and R-105 originally present in the plasma. The concentration of R-100 can be calculated from that of the R-105 in the second sample minus that of R-105 in the first sample. However, the concentrations of R-105 were seen to be low (approximately 10% or less of those of R-100) and so the results reported below as R-100 are not corrected for R-105.
Sets of standards (R-100, R-105 and R-107) were prepared by spiking individually in pig plasma. 100 μl aliquots of these spiked plasma samples, after thawing, were included in the above extraction protocol.
Analysis method were carried out with an Agilent HPLC stack, with column eluate directed, via a diverter valve, into the source of an AB Sciex ‘Qstar Elite’ Hybrid TOF, high-resolution mass spectrometer. LC column: Phenomenex Kinetex C18 2.6u 100A, 2.1×50 mm. LC mobile phase A: H2O with 0.02% trifluoroacetic acid (TFA), 0.1% formic acid (HOF); Phase B: acetonitrile (ACN) with 0.02% TFA, 0.1% HOF. Mobile phase flow rate=500 μl/min. Injection size: 8 μl, via Agilent 1100 u-WPS autosampler. […]

The conditions of series [2]: cited from earlier work.

Consider 1 molecule from US9604932B2 (priority 2013, dated 2017).

Take `CC1(C)CC(CO[N+](=O)[O-])C(C)(C)N1[O]` (centres unmarked) [R-100, 3-nitratomethyl-2,2,5,5-tetramethylpyrrolidinyloxy, reference compound]: the R-100 in plasma in series [1] (0 hrs post dose) is 0 µg/mL; in series [1] (0.08 hrs post dose), 6.72 µg/mL; in series [1] (0.17 hrs post dose) it was 6.11 µg/mL; in series [1] (0.25 hrs post dose), 5.31 µg/mL; in series [1] (0.5 hrs post dose), 2.72 µg/mL; in series [1] (1 hrs post dose), 1.63 µg/mL. The R-100 in plasma amounted to 0.7 µg/mL in series [1] (2 hrs post dose), 0.28 µg/mL in series [1] (4 hrs post dose) and 0.03 µg/mL in series [1] (8 hrs post dose). Besides, the “Solubility in organic solvents” value in series [2] is listed as “soluble in certain organic solvents such as dimethyl sulfoxide (DMSO)”. Also, the Solubility in water entry in series [2] is “highly insoluble in water”.
